Data published in the supplement of paper PMC11208160.

Assay: recombinant UMI read abundance after kanamycin selection (control-corrected) (log10(CPM+1)); higher = more efficient recombination; extreme values may be limits of the assay; sequences stand for … in AGTGCAGAGAAAATCGGCCAGTTTTCTCTGCCTGCAGTCCGCATGCCGTGGGACCCCTTGGGTTCTAACCTGTTGCCTAGATTTATGCAGCGGACTGCCTTTCTCCCAAAGTGATAAACCGG…AGGTTGGTTTCACT; site = the 11-nt donor
How it was run: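 After plating on IPTG (0.07 mM) plus kanamycin, or unselected, in two replicates, recombinant UMIs were PCR-amplified across the donor–target junction and sequenced. The cells were Escherichia coli co-electroporated with a UMI-tagged donor and donor-binding-loop pair library and a target plasmid with a fixed target and T7-inducible IS621 bridge recombinase. Values are log10(CPM+1), with CPM averaged over replicates and scaled by control-derived factors.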
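Also: IS621 bridge recombinase in Escherichia coli cells against a fixed T5 target plasmid.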

Sequence | recombinant UMI read abundance (log10)
ACTAGTGCATGGACCGGTTTTCCCGGTAATCCGTATTTGGT (site ACTCGTGCTAC) | 0.265
CAATCAACATGGACCGGTTTTCCCGGTAATCCGTATTTGTG (site CAATCAACTCA) | 0.737
TGCCCGGCATGGACCGGTTTTCCCGGTAATCCGTATTTGGC (site TGACCGGCTGC) | 0.0166
ATAAGACCATGGACCGGTTTTCCCGGTAATCCGTATTTGAC (site ATAAGGCCTGT) | 0
TGTAGACCATGGACCGGTTTTCCCGGTAATCCGTATTTGAC (site TGTAAACCTGT) | 0
ACAGTGTCATGGACCGGTTTTCCCGGTAATCCGTATTTGCC (site ACAGTATCTTG) | 2.05
CACTTAGCATGGACCGGTTTTCCCGGTAATCCGTATTTGGA (site CACTTCGCTTC) | 0.00475
ATTAGGCCATGGACCGGTTTTCCCGGTAATCCGTATTTGTG (site ATTAGGCCTCA) | 0.00967
AGCTCAGCATGGACCGGTTTTCCCGGTAATCCGTATTTGCG (site AGCTCAGCTCC) | 0.00908
GCTTGACCATGGACCGGTTTTCCCGGTAATCCGTATTTGAT (site GCTTGACCTAT) | 0.00317
TGATCCCCATGGACCGGTTTTCCCGGTAATCCGTATTTGTA (site TGGTCCCCTTA) | 0.00213
AAGCCTGCATGGACCGGTTTTCCCGGTAATCCGTATTTGTA (site AAGCCTGCTTA) | 0.811
GACTATTCATGGACCGGTTTTCCCGGTAATCCGTATTTGTA (site GACTATTCTTA) | 1.34
CCGTTTGCATGGACCGGTTTTCCCGGTAATCCGTATTTGGT (site CCGTTTGCTAC) | 0.48
CACGGTTCATGGACCGGTTTTCCCGGTAATCCGTATTTGGG (site CACGGTTCTCC) | 1.03
ACTAAAACATGGACCGGTTTTCCCGGTAATCCGTATTTGAG (site ACTAGAACTCT) | 0.267
GCTACTGCATGGACCGGTTTTCCCGGTAATCCGTATTTGGC (site GCTACTGCTGT) | 1.54
GGATAGCCATGGACCGGTTTTCCCGGTAATCCGTATTTGCC (site GGATAGGCTGG) | 0
CGGTCCGCATGGACCGGTTTTCCCGGTAATCCGTATTTGCG (site CGGTCCGCTCG) | 0.155
CTGGAAGCATGGACCGGTTTTCCCGGTAATCCGTATTTGCA (site CTGGAAGCTTG) | 1.04
CACTTGGCATGGACCGGTTTTCCCGGTAATCCGTATTTGGA (site AACTTGGCTTC) | 0.00381
GTAGGTACATGGACCGGTTTTCCCGGTAATCCGTATTTGAG (site GTAGGTACTCT) | 1.29
GCTAGTGCATGGACCGGTTTTCCCGGTAATCCGTATTTGCC (site GCTAGTGCTGG) | 1.86
AGGAAGACATGGACCGGTTTTCCCGGTAATCCGTATTTGCA (site AGTAAGACTGG) | 0
CGATTGGCATGGACCGGTTTTCCCGGTAATCCGTATTTGCT (site CGTTTGGCTAG) | 0

Sequence | recombinant UMI read abundance (log10)
CGTGGAGCATGGACCGGTTTTCCCGGTAATCCGTATTTGTT (site CGTGGAACTAA) | 1.66
CTTTGCCCATGGACCGGTTTTCCCGGTAATCCGTATTTGAG (site CTTTGCCCTCT) | 0.0229
TCCATTTCATGGACCGGTTTTCCCGGTAATCCGTATTTGCC (site TCCAGTTCTGG) | 0
GGTACGTCATGGACCGGTTTTCCCGGTAATCCGTATTTGTT (site GCTACGTCTAA) | 0.0161
CGCAGTACATGGACCGGTTTTCCCGGTAATCCGTATTTGCT (site CGCAGTACTAG) | 1.44
CTTTGGGCATGGACCGGTTTTCCCGGTAATCCGTATTTGTC (site CTTTGGGCTGA) | 0
TGTTCACCATGGACCGGTTTTCCCGGTAATCCGTATTTGTA (site TGTTCTCCTTA) | 0.00688
ACTAAAGCATGGACCGGTTTTCCCGGTAATCCGTATTTGAT (site ACTAAAGCTAT) | 2.22
TCGACTCCATGGACCGGTTTTCCCGGTAATCCGTATTTGTC (site TCGACTCCTGA) | 0
TGTCCACCATGGACCGGTTTTCCCGGTAATCCGTATTTGAC (site TGTACACCTGT) | 0
TAGCTAGCATGGACCGGTTTTCCCGGTAATCCGTATTTGAA (site TTGCTAGCTTT) | 0.00459
GGGGGACCATGGACCGGTTTTCCCGGTAATCCGTATTTGCA (site GGGGTACCTTG) | 0
GCGAAAACATGGACCGGTTTTCCCGGTAATCCGTATTTGCT (site GCCAAAACTAG) | 0
AGGTCGGCATGGACCGGTTTTCCCGGTAATCCGTATTTGTA (site AGGTCGGCTTA) | 1.01
GCCACCGCATGGACCGGTTTTCCCGGTAATCCGTATTTGCG (site CCCACCGCTCG) | 0.0179
GTAGGTACATGGACCGGTTTTCCCGGTAATCCGTATTTGAG (site GTAGGTACTAT) | 0.994
GCCAAAACATGGACCGGTTTTCCCGGTAATCCGTATTTGCT (site GCAAAAACTAG) | 1.08
AGGCCTACATGGACCGGTTTTCCCGGTAATCCGTATTTGAC (site AGGACTACTGT) | 0.528
GATTGTCCATGGACCGGTTTTCCCGGTAATCCGTATTTGCT (site GATTTTCCTAG) | 0
ATGACTACATGGACCGGTTTTCCCGGTAATCCGTATTTGAC (site ACGACTACTGT) | 1.92
AATTAGGCATGGACCGGTTTTCCCGGTAATCCGTATTTGGA (site AATTAAGCTTC) | 0.133
ATGTAGACATGGACCGGTTTTCCCGGTAATCCGTATTTGGC (site ATGTAGCCTGC) | 0
CCATCATCATGGACCGGTTTTCCCGGTAATCCGTATTTGCT (site CAATCATCTAG) | 0
TCGTTTCCATGGACCGGTTTTCCCGGTAATCCGTATTTGTA (site TCGTTTCCTTA) | 1.36
CCTAAACCATGGACCGGTTTTCCCGGTAATCCGTATTTGAT (site CCTAAAACTAT) | 0

Sequence | recombinant UMI read abundance (log10)
GCAAATTCATGGACCGGTTTTCCCGGTAATCCGTATTTGTA (site GCAAATTCTTA) | 1.32
CGTAACCCATGGACCGGTTTTCCCGGTAATCCGTATTTGGC (site CGTAACCCTGC) | 0.629
ATATGCACATGGACCGGTTTTCCCGGTAATCCGTATTTGTA (site GTATGCACTTA) | 0.909
GTGGACGCATGGACCGGTTTTCCCGGTAATCCGTATTTGTG (site GTGGAAGCTCA) | 1.41
CGAGGTGCATGGACCGGTTTTCCCGGTAATCCGTATTTGAT (site CAAGGTGCTAT) | 1.84
CAGTCGACATGGACCGGTTTTCCCGGTAATCCGTATTTGGG (site CAGTCGACTCA) | 0.00973
CGGACATCATGGACCGGTTTTCCCGGTAATCCGTATTTGCT (site CGGACATCTAA) | 0
ACATCTTCATGGACCGGTTTTCCCGGTAATCCGTATTTGTG (site ACATCTACTCA) | 0.0158
TAGCCTTCATGGACCGGTTTTCCCGGTAATCCGTATTTGGC (site TAGCCTTCTTC) | 0.0129
CGCCTAGCATGGACCGGTTTTCCCGGTAATCCGTATTTGTT (site GGCCTAGCTAA) | 0.00975
TCCAATTCATGGACCGGTTTTCCCGGTAATCCGTATTTGGC (site TCCAATTCTGG) | 0
TATGAGTCATGGACCGGTTTTCCCGGTAATCCGTATTTGCT (site TATGAGTCTAG) | 2.74
AGCGAGCCATGGACCGGTTTTCCCGGTAATCCGTATTTGTA (site AGCGAGCCTTA) | 0.53
GTTCGAACATGGACCGGTTTTCCCGGTAATCCGTATTTGCA (site GTTCGATCTTG) | 0.448
TATTTTGCATGGACCGGTTTTCCCGGTAATCCGTATTTGTG (site TATTTTGCTCA) | 0.00898
GTCTTGTCATGGACCGGTTTTCCCGGTAATCCGTATTTGTC (site GTCTTGTCTGA) | 1.66
CGCAGTCCATGGACCGGTTTTCCCGGTAATCCGTATTTGAG (site CGCAGTCCTCT) | 0.438
CGGTCATCATGGACCGGTTTTCCCGGTAATCCGTATTTGCT (site CGGACATCTAG) | 0
ATAAGTCCATGGACCGGTTTTCCCGGTAATCCGTATTTGAC (site ATAAGCCCTGT) | 0.569
GGTCCAGCATGGACCGGTTTTCCCGGTAATCCGTATTTGTA (site GGTCCAGCTTA) | 1.56
TACTTCACATGGACCGGTTTTCCCGGTAATCCGTATTTGCT (site TACTTGACTAG) | 0.0117
ATCGATACATGGACCGGTTTTCCCGGTAATCCGTATTTGAC (site ATCAATACTGT) | 1.49
CTACAACCATGGACCGGTTTTCCCGGTAATCCGTATTTGAT (site CTACAACCTAT) | 0
ACCCCGACATGGACCGGTTTTCCCGGTAATCCGTATTTGTG (site ACCCCGACTCA) | 0.965
TAGCAGGCATGGACCGGTTTTCCCGGTAATCCGTATTTGCT (site TAGCAGGCTAG) | 1.19
